From ChEMBL document CHEMBL4002583, “Amino derivatives of platanic acid act as selective and potent inhibitors of butyrylcholinesterase” (Eur J Med Chem, 2017)

What was measured:
[1] = target: T1, Acetylcholinesterase (Electrophorus electricus, UniProt O42275); test: Competitive inhibition of electric eel AChE using acetylthiocholine iodide as substrate preincubated for 20 mins followed by substrate addition measured every 1 min for 30 mins by Dixon plot method
[2] = Selectivity ratio of Ki for electric eel AChE to Ki for equine serum BChE
[3] = target: T1, Acetylcholinesterase; test: Uncompetitive inhibition of electric eel AChE using acetylthiocholine iodide as substrate preincubated for 20 mins followed by substrate addition measured every 1 min for 30 mins by Cornish-Bowden plot method
[4] = target: T2, Cholinesterase (Equus caballus, UniProt P81908); test: Competitive inhibition of equine serum BChE using butyrylthiocholine iodide as substrate preincubated for 20 mins followed by substrate addition measured every 1 min for 30 mins by Dixon plot method
T2 sequence (P81908 whole entry): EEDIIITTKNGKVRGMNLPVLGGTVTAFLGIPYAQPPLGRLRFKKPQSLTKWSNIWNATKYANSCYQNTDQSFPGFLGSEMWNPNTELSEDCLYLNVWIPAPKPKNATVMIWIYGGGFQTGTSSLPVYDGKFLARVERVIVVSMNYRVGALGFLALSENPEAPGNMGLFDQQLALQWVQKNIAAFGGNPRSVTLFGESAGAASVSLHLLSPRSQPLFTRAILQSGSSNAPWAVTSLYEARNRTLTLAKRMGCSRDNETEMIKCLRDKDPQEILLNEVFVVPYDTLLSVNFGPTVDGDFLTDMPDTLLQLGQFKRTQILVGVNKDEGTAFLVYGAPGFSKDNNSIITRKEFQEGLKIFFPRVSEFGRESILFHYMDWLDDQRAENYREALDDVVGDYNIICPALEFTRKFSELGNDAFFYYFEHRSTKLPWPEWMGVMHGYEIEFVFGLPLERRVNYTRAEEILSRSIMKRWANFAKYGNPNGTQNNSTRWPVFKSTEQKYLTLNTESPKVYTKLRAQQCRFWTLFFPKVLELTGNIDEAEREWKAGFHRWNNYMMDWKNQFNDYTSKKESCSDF

[5] = target: T2, Cholinesterase; test: Uncompetitive inhibition of equine serum BChE using butyrylthiocholine iodide as substrate preincubated for 20 mins followed by substrate addition measured every 1 min for 30 mins by Cornish-Bowden plot method
[6] = Chemical stability in TRIS buffer at pH 8 measured over 2880 mins by HPLC method; format: physicochemical; conditions: pH 8, 48 h
[7] = Chemical stability in TRIS buffer at pH 8 measured over 2880 mins in presence of BChE by HPLC method; format: physicochemical; conditions: pH 8, 48 h
[8] = Selectivity ratio of Ki for equine serum BChE to Ki for electric eel AChE
[9] = target: T3, Cholinesterase (Homo sapiens, UniProt P06276); test: Inhibition of […] using S-butyrylthiocholine as substrate preincubated for 30 mins followed by substrate addition measured after 25 mins by spectrophotometric method
T3 sequence (P06276 whole entry): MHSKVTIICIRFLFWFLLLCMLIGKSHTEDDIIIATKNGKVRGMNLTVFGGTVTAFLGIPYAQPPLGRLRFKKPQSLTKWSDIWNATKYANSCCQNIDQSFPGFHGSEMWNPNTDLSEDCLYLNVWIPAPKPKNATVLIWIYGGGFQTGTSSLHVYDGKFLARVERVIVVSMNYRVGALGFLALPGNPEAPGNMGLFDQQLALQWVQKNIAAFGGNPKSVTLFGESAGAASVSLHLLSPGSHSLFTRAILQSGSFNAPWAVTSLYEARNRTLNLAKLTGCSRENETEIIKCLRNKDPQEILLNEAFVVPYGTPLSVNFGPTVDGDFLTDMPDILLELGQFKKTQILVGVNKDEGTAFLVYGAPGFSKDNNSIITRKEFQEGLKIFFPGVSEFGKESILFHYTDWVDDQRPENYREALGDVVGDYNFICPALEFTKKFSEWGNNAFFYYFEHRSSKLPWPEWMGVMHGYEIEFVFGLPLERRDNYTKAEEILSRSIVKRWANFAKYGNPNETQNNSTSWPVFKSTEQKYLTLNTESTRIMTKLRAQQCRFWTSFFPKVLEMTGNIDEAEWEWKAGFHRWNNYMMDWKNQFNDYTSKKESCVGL

[10] = target: T3, Cholinesterase; test: Inhibition of human serum BChE using butyrylthiocholine iodide as substrate by Ellman's method
[11] = target: Acetylcholinesterase (Homo sapiens, UniProt P22303); test: Inhibition of […] using acetyl-(beta-methyl)thiocholine as substrate preincubated for 30 mins followed by substrate addition measured after 25 mins by spectrophotometric method
Acetylcholinesterase (Homo sapiens, UniProt P22303), sequence (P22303 whole entry): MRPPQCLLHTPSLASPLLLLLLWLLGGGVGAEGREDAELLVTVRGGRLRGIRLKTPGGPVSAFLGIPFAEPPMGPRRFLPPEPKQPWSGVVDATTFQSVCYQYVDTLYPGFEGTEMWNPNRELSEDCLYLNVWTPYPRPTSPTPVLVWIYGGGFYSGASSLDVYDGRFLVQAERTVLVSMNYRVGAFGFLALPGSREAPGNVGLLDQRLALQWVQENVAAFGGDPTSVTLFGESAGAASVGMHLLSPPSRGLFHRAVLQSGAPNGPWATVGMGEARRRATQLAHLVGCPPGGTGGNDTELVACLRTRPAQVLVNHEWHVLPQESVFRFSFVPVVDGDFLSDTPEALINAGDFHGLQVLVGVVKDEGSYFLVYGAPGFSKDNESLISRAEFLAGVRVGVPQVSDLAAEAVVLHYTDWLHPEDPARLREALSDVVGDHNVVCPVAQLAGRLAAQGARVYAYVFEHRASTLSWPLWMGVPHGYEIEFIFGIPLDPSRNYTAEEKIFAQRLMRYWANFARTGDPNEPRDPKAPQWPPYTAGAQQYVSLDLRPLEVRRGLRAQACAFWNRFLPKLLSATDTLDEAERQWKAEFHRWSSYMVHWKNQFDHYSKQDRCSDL

T1 sequence (O42275 whole entry): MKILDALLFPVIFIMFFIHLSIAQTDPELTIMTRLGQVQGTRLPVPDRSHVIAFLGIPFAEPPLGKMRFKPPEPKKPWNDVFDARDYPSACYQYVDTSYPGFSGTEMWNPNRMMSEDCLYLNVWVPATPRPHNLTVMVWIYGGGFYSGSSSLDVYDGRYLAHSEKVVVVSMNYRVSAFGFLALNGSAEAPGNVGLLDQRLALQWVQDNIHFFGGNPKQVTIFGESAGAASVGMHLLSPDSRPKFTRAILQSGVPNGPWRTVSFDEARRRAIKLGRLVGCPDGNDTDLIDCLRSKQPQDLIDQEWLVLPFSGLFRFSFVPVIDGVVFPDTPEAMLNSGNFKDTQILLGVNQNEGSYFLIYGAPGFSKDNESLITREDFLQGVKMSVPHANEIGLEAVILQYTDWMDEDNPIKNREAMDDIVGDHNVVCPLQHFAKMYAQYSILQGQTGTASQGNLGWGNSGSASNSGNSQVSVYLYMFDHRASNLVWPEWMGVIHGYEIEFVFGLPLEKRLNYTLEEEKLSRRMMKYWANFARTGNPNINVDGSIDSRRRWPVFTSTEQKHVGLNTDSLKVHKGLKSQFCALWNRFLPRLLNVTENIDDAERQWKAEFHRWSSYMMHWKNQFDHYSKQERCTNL

Structure (SMILES) | Ki [1] [µM] | Ratio Ki [2] | Ki [3] [µM] | Ki [4] [µM] | Ki [5] [µM] | Stability [6] | Stability [7] | Ratio Ki [8] | IC50 [9] [µM] | Ki [10] [µM] | IC50 [11] [µM]
CC(=O)O[C@H]1CC[C@]2(C)[C@H]3CC[C@@H]4[C@H]5[C@H]([C@H](C)N)CC[C@]5(C(=O)OCc5ccccc5)CC[C@@]4(C)[C@]3(C)CC[C@H]2C1(C)C | 10.7 | 28 | 34.2 | 0.38 | 6.78 |  |  |  |  |  | 
CC(=O)O[C@H]1CC[C@]2(C)[C@H]3CC[C@@H]4[C@H]5[C@H](/C(C)=N/O)CC[C@]5(C(=O)O)CC[C@@]4(C)[C@]3(C)CC[C@H]2C1(C)C |  |  |  |  |  | Stable | Stable |  |  |  | 
COC(=O)[C@]12CC[C@@H](/C(C)=N/OC(C)=O)[C@@H]1[C@H]1CC[C@@H]3[C@@]4(C)CC[C@H](OC(C)=O)C(C)(C)[C@@H]4CC[C@@]3(C)[C@]1(C)CC2 | > 15 |  |  | > 15 |  |  |  |  |  |  | 
CC(=O)[C@@H]1CC[C@]2(C(=O)NCCN)CC[C@]3(C)[C@H](CC[C@@H]4[C@@]5(C)CC[C@H](O)C(C)(C)[C@@H]5CC[C@]43C)[C@@H]12 | 7.18 |  | 9.71 | 8.37 | > 110 |  |  | 1.2 |  |  | 
CC(=O)O[C@H]1CC[C@]2(C)[C@H]3CC[C@@H]4[C@H]5[C@H]([C@@H](C)N)CC[C@]5(C(=O)OCc5ccccc5)CC[C@@]4(C)[C@]3(C)CC[C@H]2C1(C)C | 8.51 | 851 | 17 | 0.01 | 0.4 |  |  |  |  |  | 
C[C@@H](N)[C@@H]1CC[C@]2(CO)CC[C@]3(C)[C@H](CC[C@@H]4[C@@]5(C)CC[C@H](O)C(C)(C)[C@@H]5CC[C@]43C)[C@@H]12 | 53.1 | 378 | 104 | 0.14 | 1.89 |  |  |  |  |  | 
CCC(=O)O/N=C(\C)[C@@H]1CC[C@]2(C(=O)OC)CC[C@]3(C)[C@H](CC[C@@H]4[C@@]5(C)CC[C@H](OC(C)=O)C(C)(C)[C@@H]5CC[C@]43C)[C@@H]12 | > 30 |  |  | > 30 |  |  |  |  |  |  | 
CC(=O)[C@@H]1CC[C@]2(C(=O)OCc3ccccc3)CC[C@]3(C)[C@H](CC[C@@H]4[C@@]5(C)CC[C@@H](N)C(C)(C)[C@@H]5CC[C@]43C)[C@@H]12 | 20.3 | 11 | > 90 | 1.8 | 5.98 |  |  |  |  |  | 
CC(=O)[C@@H]1CC[C@]2(C(=O)OCc3ccccc3)CC[C@]3(C)[C@H](CC[C@@H]4[C@@]5(C)CC[C@H](N)C(C)(C)[C@@H]5CC[C@]43C)[C@@H]12 | 13.4 | 24 | 76.6 | 0.56 | 3.5 |  |  |  |  |  | 
CC(=O)OC[C@]12CC[C@@H]([C@@H](C)N)[C@@H]1[C@H]1CC[C@@H]3[C@@]4(C)CC[C@H](OC(C)=O)C(C)(C)[C@@H]4CC[C@@]3(C)[C@]1(C)CC2 | 4.5 | 75 |  | 0.06 | 0.37 |  |  |  |  |  | 
COC(=O)[C@]12CC[C@@H]([C@@H](C)NC(C)=O)[C@@H]1[C@H]1CC[C@@H]3[C@@]4(C)CC[C@H](OC(C)=O)C(C)(C)[C@@H]4CC[C@@]3(C)[C@]1(C)CC2 | > 4 |  |  | > 4 |  |  |  |  |  |  | 
CC(=O)[C@@H]1CC[C@]2(C(=O)O)CC[C@]3(C)[C@H](CC[C@@H]4[C@@]5(C)CC[C@H](O)C(C)(C)[C@@H]5CC[C@]43C)[C@@H]12 [PLATANIC ACID] | 31.6 |  | 36.9 | > 50 |  |  |  | > 1.6 |  |  | 
CC(=O)[C@@H]1CC[C@]2(C(=O)OCc3ccccc3)CC[C@]3(C)[C@H](CC[C@@H]4[C@@]5(C)CC[C@H](O)C(C)(C)[C@@H]5CC[C@]43C)[C@@H]12 | 0.59 |  | 4.06 | > 10 |  |  |  | > 17 |  |  | 
CC(=O)O[C@H]1CC[C@]2(C)[C@H]3CC[C@@H]4[C@H]5[C@H](C(C)=O)CC[C@]5(C(=O)NCCN)CC[C@@]4(C)[C@]3(C)CC[C@H]2C1(C)C | 3.06 |  | 6.83 | 11.9 | 17.1 |  |  | 3.9 |  |  | 
CC(=O)O[C@H]1CC[C@]2(C)[C@H]3CC[C@@H]4[C@H]5[C@H](C(C)=O)CC[C@]5(C(=O)OCc5ccccc5)CC[C@@]4(C)[C@]3(C)CC[C@H]2C1(C)C | 0.09 |  | 0.21 | 33.1 | > 400 |  |  | 368 |  |  | 
CC(=O)O[C@H]1CC[C@]2(C)[C@H]3CC[C@@H]4[C@H]5[C@H](C(C)=O)CC[C@]5(C(N)=O)CC[C@@]4(C)[C@]3(C)CC[C@H]2C1(C)C | 8.16 |  | 10.9 | > 10 |  |  |  | > 1.2 |  |  | 
COC(=O)[C@]12CC[C@@H]([C@H](C)N)[C@@H]1[C@H]1CC[C@@H]3[C@@]4(C)CC[C@H](OC(C)=O)C(C)(C)[C@@H]4CC[C@@]3(C)[C@]1(C)CC2 | > 40 | > 173 | > 80 | 0.23 | 3.89 |  |  |  |  |  | 
COC(=O)[C@]12CC[C@@H]([C@H](C)NC(C)=O)[C@@H]1[C@H]1CC[C@@H]3[C@@]4(C)CC[C@H](OC(C)=O)C(C)(C)[C@@H]4CC[C@@]3(C)[C@]1(C)CC2 | 11.8 |  | 45.6 | > 40 |  |  |  | > 3.4 |  |  | 
CC(=O)O[C@H]1CC[C@]2(C)[C@H]3CC[C@@H]4[C@H]5[C@H]([C@@H](C)N)CC[C@]5(C(=O)O)CC[C@@]4(C)[C@]3(C)CC[C@H]2C1(C)C | 20.9 | 209 |  | 0.1 | 2.75 |  |  |  |  |  | 
CC(=O)[C@@H]1CC[C@]2(N)CC[C@]3(C)[C@H](CC[C@@H]4[C@@]5(C)CC[C@H](O)C(C)(C)[C@@H]5CC[C@]43C)[C@@H]12 | 20.9 | 3.3 | > 120 | 6.39 | 38.9 |  |  |  |  |  | 
CC(C)c1ccc(NC(=O)Oc2ccc3c(c2)[C@]2(C)CCN[C@@H]2N3)cc1 |  |  |  |  |  |  |  |  | 0.001 | 0.000131 | 0.11
C[C@@H](N)[C@@H]1CC[C@]2(C(=O)OCc3ccccc3)CC[C@]3(C)[C@H](CC[C@@H]4[C@@]5(C)CC[C@H](O)C(C)(C)[C@@H]5CC[C@]43C)[C@@H]12 | 11 | 157 | 47.8 | 0.07 | 0.19 | Stable | Stable |  |  |  | 
COC(=O)[C@]12CC[C@@H](NC(C)=O)[C@@H]1[C@H]1CC[C@@H]3[C@@]4(C)CC[C@H](OC(C)=O)C(C)(C)[C@@H]4CC[C@@]3(C)[C@]1(C)CC2 | 14.1 |  |  | > 20 |  |  |  | > 1.4 |  |  | 
CC(=O)[C@@H]1CC[C@]2(C(=O)OCc3ccccc3)CC[C@]3(C)[C@H](CC[C@@H]4[C@@]5(C)CCC(=O)C(C)(C)[C@@H]5CC[C@]43C)[C@@H]12 | 2.63 |  | 4.59 | > 10 |  |  |  | > 3.8 |  |  | 
COC(=O)[C@]12CC[C@@H](C(C)=O)[C@@H]1[C@H]1CC[C@@H]3[C@@]4(C)CC[C@H](O)C(C)(C)[C@@H]4CC[C@@]3(C)[C@]1(C)CC2 | 0.76 |  |  | > 4 |  |  |  | > 5 |  |  | 
COC(=O)[C@]12CC[C@@H]([C@@H](C)N)[C@@H]1[C@H]1CC[C@@H]3[C@@]4(C)CC[C@H](OC(C)=O)C(C)(C)[C@@H]4CC[C@@]3(C)[C@]1(C)CC2 | > 4 | > 44 |  | 0.09 | 0.05 |  |  |  |  |  | 
CC(=O)O[C@H]1CC[C@]2(C)[C@H]3CC[C@@H]4[C@H]5[C@H](C(C)=O)CC[C@]5(C(=O)O)CC[C@@]4(C)[C@]3(C)CC[C@H]2C1(C)C | 9 |  |  | > 10 |  |  |  | > 1.1 |  |  | 
